These are literature values, as cited in patent US20210319872A1, “DRUG AND DEVICE COMBINATION PRODUCTS WITH IMPROVED SAFETY AND EFFICACY PROFILES” (priority 2016, published 2021).

Like-named read-outs stand apart in the source and are kept apart here.

For `O=C1CCc2ccc(OCCCCN3CCN(c4cccc(Cl)c4Cl)CC3)cc2N1` [Aripiprazole (Abilify)], for the setting “in vivo”, the Akathisia entry was “Neurologic: Akathisia (2% to 25%), Dizziness (4% to 10%),”; the Angioedema entry is recorded as “Other: Angioedema (0.1% to less than 1%), Increased body”; the Anxiety result is “Psychiatric: Anxiety (4% to 17%), Restlessness (2% to 12%)”; the Cardiorespiratory arrest entry was “Cardiovascular: Cardiorespiratory arrest (0.1% to 1%),”. Moreover, for the setting “in vivo”, the Cardiorespiratory failure result is given as “Cardiorespiratory failure (0.1% to 1%), Myocardial infarction”; the Constipation entry is on record as “Gastrointestinal: Constipation (5% to 11%), Nausea (8% to 15%),”; the Diabetic ketoacidosis result is reported as “Endocrine metabolic: Diabetic ketoacidosis (Less than 0.1%)”; the Dizziness entry is listed as “Neurologic: Akathisia (2% to 25%), Dizziness (4% to 10%),”. Besides, for the setting “in vivo”, the Extrapyramidal sign result is “Extrapyramidal sign (2% to 27.3%), Headache (10% to 27%),”; the Fatigue result is “Other: Fatigue (2% to 17%)”; the Headache result is “Extrapyramidal sign (2% to 27.3%), Headache (10% to 27%),”; the Leukopenia entry is reported as “Hematologic: Agranulocytosis, Leukopenia (Less than 1%),”. Where the note is “in vivo”, the Myocardial infarction entry is on record as “(0.1% to 1%), Prolonged QT interval (0.1% to 1%)”; the Nausea result is on record as “Gastrointestinal: Constipation (5% to 11%), Nausea (8% to 15%),”; the Neutropenia result is reported as “Neutropenia (Less than 1%)”; the Pancreatitis result is “Gastrointestinal: Pancreatitis (Less than 0.1%)”. For the setting “in vivo”, the “Prolonged QT interval” value is given as “(0.1% to 1%), Prolonged QT interval (0.1% to 1%)”; the Restlessness entry was “Psychiatric: Anxiety (4% to 17%), Restlessness (2% to 12%)”; the Rhabdomyolysis result is listed as “Musculoskeletal: Rhabdomyolysis (Less than 0.1%)”; the Sedated result is recorded as “Insomnia (8% to 18%), Sedated (3% to 21%), Somnolence (6% to”. Moreover, for the setting “in vivo”, the Seizure result is on record as “Neurologic: Cerebrovascular accident, Seizure (Up to 0.3%),”; the Tremor is recorded as 26.3%), Tremor (2% to 11.8%); the Vomiting entry is reported as “Vomiting (3% to 11%)”.

For `C[C@@H]1CCN(C(=O)CC#N)C[C@@H]1N(C)c1ncnc2[nH]ccc12` [Xeljanz (Jak Compounds)], under “in vivo”, the Decreased lymphocyte count result is recorded as “Hematologic: Anemia, Decreased lymphocyte count (0.04%),”; the Headache entry is given as “Neurologic: Headache (3.4% to 4.3%)”; the “Increased HDL level” value is given as “Endocrine metabolic: Increased HDL level (10% to 12%), Raised”; the Infectious disease result is “Immunologic: Infectious disease (20% to 22%), Opportunistic”. Besides, where the note is “in vivo”, the Nasopharyngitis entry is “Respiratory: Nasopharyngitis (2.8% to 3.8%), Upper respiratory”; the Neutropenia result is on record as “Neutropenia (0.07%)”; the “Post-transplant lymphoproliferative disorder, Epstein Barr virus associated” value is “Barr virus associated (2.3%), Tuberculosis”; the “Raised low density lipoprotein cholesterol” value is reported as “low density lipoprotein cholesterol (15% to 19%)”. In addition, for the setting “in vivo”, the “Serious side effect, Dermatologic” value was “Dermatologic: Skin cancer, Non-melanoma”; the “Serious side effect, Gastrointestinal” value is given as “Gastrointestinal: Gastrointestinal perforation”; the “Serious side effect, Hematologic” value is “Hematologic: Anemia, Decreased lymphocyte count (0.04%),”; the “Serious side effect, Hepatic” value is listed as “Hepatic: Injury of liver”. Further, under “in vivo”, the “Serious side effect, Other” value is “Other: Cancer”; the Upper respiratory infection entry is reported as “infection (3.8% to 4.5%)”; the “Urinary tract infectious disease” value was “Renal: Urinary tract infectious disease (2%)”.

Turning to `CCCc1nc2c(C)cc(-c3nc4ccccc4n3C)cc2n1Cc1ccc(-c2ccccc2C(=O)O)cc1` [Telmisartan (Micardis))], under “in vivo”, the Cough result is on record as “Respiratory: Cough (1.6% to 15.6%), Upper respiratory infection”; the “Serious side effects, listed without incidence or only as rare” value is “Musculoskeletal: Rhabdomyolysis (rare)”; the Upper respiratory infection result is “(7%)”.

As to `COC(=O)C(c1ccccc1)C1CCCCN1` (stereo not shown) [Methylphenidate], for the setting “in vivo”, the Aggressive behavior entry is reported as “Psychiatric: Aggressive behavior (Adult, 1.7%), Mania, Psychotic”; the Decrease in appetite result is listed as “appetite (Adult, 25.3%; pediatric, 2% to 9% or greater), Loss of”; the Diaphoresis entry is given as “Dermatologic: Diaphoresis (Adult, 5.1%)”; the Dizziness result is “Neurologic: Dizziness (Adult, 6.7%; pediatric, 1.9%.), Headache”. Also, under “in vivo”, the Headache entry is “(Adult, 22.2%; pediatric, up to 12%), Insomnia (Adult, 12.3%;”; the Irritability is 3.9%), Irritability (Adult, 5.8%); the Nausea result is “(Adult, 12.8%), Vomiting (2% or greater), Xerostomia (Adult,”; the “Serious side effect, Endocrine metabolic” value is “Endocrine metabolic: Decreased body growth”. Further, where the note is “in vivo”, the “Serious side effect, Gastrointestinal” value was “Gastrointestinal: Gastrointestinal obstruction, with preexisting”; the “Serious side effect, Hepatic” value was “Hepatic: Abnormal liver function”; the “Serious side effect, Psychiatric” value is “Psychiatric: Aggressive behavior (Adult, 1.7%), Mania, Psychotic”; the “Serious side effect, Reproductive” value is given as “Reproductive: Priapism”. Besides, for the setting “in vivo”, the Tachycardia entry is given as “Cardiovascular: Tachycardia (Adult, 4.8%)”; the Vomiting result is “(Adult, 12.8%), Vomiting (2% or greater), Xerostomia (Adult,”; the Weight decreased entry was “Endocrine metabolic: Weight decreased (Adult, 6.5%)”; the Xerostomia was 14%).

Turning to `CCC(=O)C(CC(C)N(C)C)(c1ccccc1)c1ccccc1` (stereo not shown) [Methadone], for the setting “in vivo”, the “Common side effect, Cardiovascular” value was “Cardiovascular: Hypotension”; the “Common side effect, Endocrine metabolic” value is recorded as “Endocrine metabolic: Diaphoresis”; the “Common side effect, Gastrointestinal” value is listed as “Gastrointestinal: Constipation, Nausea, Vomiting”; the “Common side effect, Neurologic” value is reported as “Neurologic: Asthenia, Dizziness, Lightheadedness, Sedated”. Under “in vivo”, the “Serious side effect, Endocrine metabolic” value is “Endocrine metabolic: Hypoglycemia”; the “Serious side effect, Other” value is reported as “Other: Drug dependence”; the “Serious side effect, Respiratory” value was “Respiratory: Respiratory acidosis, Respiratory arrest, Respiratory”.

For `OCCOCCN1CCN(C2=Nc3ccccc3Sc3ccccc32)CC1` [Seroquel (Quetiapine)], for the setting “in vivo”, the Abdominal pain result is on record as “Gastrointestinal: Abdominal pain (3% to 7%), Constipation (2% to”; the Agitation entry was “Psychiatric: Agitation (6% to 20%)”; the Asthenia result is “Neurologic: Asthenia (Up to 10%), Dizziness (8% to 19%),”; the Backache entry is “Musculoskeletal: Backache (3% to 5%)”. For the same compound, under “in vivo”, the Dizziness result was “Neurologic: Asthenia (Up to 10%), Dizziness (8% to 19%),”; the Extrapyramidal disease result is on record as “Extrapyramidal disease (1.1% to 12.9%), Headache (17% to 21%),”; the Fatigue result is on record as “Other: Fatigue (3% to 14%), Pain (7%)”; the Headache result was “Extrapyramidal disease (1.1% to 12.9%), Headache (17% to 21%),”. Where the note is “in vivo”, the Increased appetite was 11%), Increased appetite (2% to 12%), Indigestion (2% to 7%),; the Increased liver enzymes result was “Hepatic: Increased liver enzymes (1% to 6%)”; the Indigestion was 11%), Increased appetite (2% to 12%), Indigestion (2% to 7%),; the Insomnia result is “Insomnia (8% to 12%), Lethargy (1% to 5%), Somnolence (18% to”. Moreover, under “in vivo”, the Lethargy result is listed as “Insomnia (8% to 12%), Lethargy (1% to 5%), Somnolence (18% to”; the Nasal congestion entry is reported as “Respiratory: Nasal congestion (3% to 5%), Pharyngitis (4% to 6%)”; the Nausea result is reported as “Nausea (Pediatric, 6% to 10%), Vomiting (Pediatric, 7% to 8%),”; the Neutropenia result is reported as “Hematologic: Agranulocytosis, Leukopenia, Neutropenia (0.3% to”. For the setting “in vivo”, the Orthostatic hypotension entry is “Orthostatic hypotension (Up to 7%), Tachycardia (Up to 6%)”; the Pain entry was “Other: Fatigue (3% to 14%), Pain (7%)”; the Pharyngitis result was “Respiratory: Nasal congestion (3% to 5%), Pharyngitis (4% to 6%)”; the “Prolonged QT interval” value was “Cardiovascular: Prolonged QT interval (0.1% to less than 1%),”. Moreover, for the setting “in vivo”, the Seizure entry is “Neurologic: Seizure (0.05% to 0.5%), Tardive dyskinesia”; the “Serious side effect, Cardiovascular” value is given as “Sudden cardiac death, Syncope (0.3% to 1%)”; the “Serious side effect, Endocrine metabolic” value is “Endocrine metabolic: Diabetic ketoacidosis”; the “Serious side effect, Gastrointestinal” value is “Gastrointestinal: Pancreatitis”. Under “in vivo”, the “Serious side effect, Hematologic” value is reported as “Hematologic: Agranulocytosis, Leukopenia, Neutropenia (0.3% to”; the “Serious side effect, Immunologic” value is recorded as “Immunologic: Anaphylaxis”; the “Serious side effect, Neurologic” value is “Neurologic: Seizure (0.05% to 0.5%), Tardive dyskinesia”; the “Serious side effect, Other” value is given as “Other: Neuroleptic malignant syndrome”. Also, under “in vivo”, the “Serious side effect, Psychiatric” value was “Psychiatric: Suicidal thoughts”; the “Serious side effect, Reproductive” value was “Reproductive: Priapism”; the Serum cholesterol raised entry is “Endocrine metabolic: Serum cholesterol raised (7% to 18%), Serum”; the Serum triglycerides raised result is “triglycerides raised (8% to 28%), Weight gain (3% to 28%)”. For the same compound, where the note is “in vivo”, the Somnolence entry is “Insomnia (8% to 12%), Lethargy (1% to 5%), Somnolence (18% to”; the Syncope entry is reported as “Sudden cardiac death, Syncope (0.3% to 1%)”; the Tachycardia result is “Orthostatic hypotension (Up to 7%), Tachycardia (Up to 6%)”; the Tremor is listed as 57%), Tremor (2% to 8%). In addition, under “in vivo”, the Vomiting entry is reported as “Nausea (Pediatric, 6% to 10%), Vomiting (Pediatric, 7% to 8%),”; the Weight gain result is “triglycerides raised (8% to 28%), Weight gain (3% to 28%)”; the Xerostomia result was “Xerostomia (Adult, 9% to 44%; pediatric, 4% to 10%)”.

For Nesiritide (Natrecor), under “in vivo”, the “Dizziness (incidence)” value is listed as “Neurologic: Dizziness (2%), Headache (7%)”; the “Headache (incidence)” value is “Neurologic: Dizziness (2%), Headache (7%)”; the “Hypotension (incidence)” value was “Cardiovascular: Hypotension (4% to 17%)”; the “Nausea (incidence)” value is “Gastrointestinal: Nausea (3%)”. For the setting “in vivo”, the “Serum creatinine raised (incidence)” value was “Renal: Serum creatinine raised (17% to 31.4%)”.

Turning to `OCCN(CCO)c1nc(N2CCCCC2)c2nc(N(CCO)CCO)nc(N3CCCCC3)c2n1` [Dipyridamole], under “IV”, the Bronchospasm result is “Respiratory: Bronchospasm (IV, 0.2%)”; the Chest pain entry is “Cardiovascular: Chest pain (IV, up to 30%), Electrocardiogram”; the Dizziness is reported as 11.8%; the Flushing is reported as 3.4%. In addition, under “IV”, the Myocardial infarction is on record as 0.1% and the Ventricular tachycardia result is on record as “tachycardia (IV, 0.2%)”. Further, under “oral”, the Abdominal discomfort result was “Gastrointestinal: Abdominal discomfort (oral, 6.1%)”; the Dizziness is 13.6%; the Headache was 2.3%; the Rash was 2.3%.
